Experimental data taken from PMC8849072, “Sudapyridine (WX-081), a Novel Compound against Mycobacterium tuberculosis” (Microbiology Spectrum, 2022).
≈ marks a conversion by molar mass, not a printed value.

How the values were obtained:
[1] = test system: M. tuberculosis susceptible strain 14241; assay: MIC by microplate alamarBlue assay (MABA); format: cell-based, Mycobacterium tuberculosis; settings: Mycobacterium tuberculosis
[2] = test system: M. tuberculosis susceptible strain 14242; assay: MIC by microplate alamarBlue assay (MABA); format: cell-based, Mycobacterium tuberculosis; settings: Mycobacterium tuberculosis
[3] = test system: M. tuberculosis susceptible strain 14280; assay: MIC by microplate alamarBlue assay (MABA); format: cell-based, Mycobacterium tuberculosis; settings: Mycobacterium tuberculosis
[4] = test system: M. tuberculosis susceptible strain 14286; assay: MIC by microplate alamarBlue assay (MABA); format: cell-based, Mycobacterium tuberculosis; settings: Mycobacterium tuberculosis
[5] = test system: M. tuberculosis susceptible strain 14480; assay: MIC by microplate alamarBlue assay (MABA); format: cell-based, Mycobacterium tuberculosis; settings: Mycobacterium tuberculosis
M. tuberculosis H37Rv [6] = assay: MIC by microplate alamarBlue assay (MABA); format: cell-based, Mycobacterium tuberculosis; settings: Mycobacterium tuberculosis, H37RV
[7] = test system: M. tuberculosis H37Rv and two clinical isolates (14619, 14242); assay: Time-kill curve analysis; format: cell-based, Mycobacterium tuberculosis; settings: up to 14 days culture
[8] = Pharmacokinetic study in mice; format: in vivo, BALB/c mice; settings: for half-life: plasma; for half-life / At 96 h lung/plasma: lung / At 96 h lung/plasma: plasma: Mice; for At 96 h lung/plasma: lung: lung exposure at 96 h (first number of the pair); for At 96 h lung/plasma: plasma: plasma exposure at 96 h (second number of the pair)
Protocol: (§1) The BALB/c mice, rats, and beagle dogs were used in the PK study and fasted overnight before dosing. Animal doses were administered in two ways. […] Plasma samples were collected from three animals at each time point. Plasma concentrations were determined by liquid chromatography-tandem mass spectrometry (LC-MS/MS). The bioanalytical method by LC-MS/MS for pharmacokinetic (PK) studies in animal and toxicokinetic (TK) in tox studies have been validated. The total area under the concentration-time curve (AUC0-inf), the elimination half-time (t1/2), the peak concentration (Cmax), and the time to reach peak concentration (Tmax) of samples were determined directly from the experimental data using WinNonlin V6.2.1.

[9] = Pharmacokinetic study in rats; format: in vivo, rat; settings: for At 96 h lung/plasma: lung / At 96 h lung/plasma: plasma / half-life: Rat; for At 96 h lung/plasma: lung: lung exposure at 96 h (first number of the pair); for At 96 h lung/plasma: plasma: plasma exposure at 96 h (second number of the pair); for half-life: plasma
Protocol: as §1

[10] = Pharmacokinetic study in beagle dogs; format: in vivo; settings: dog; for AUC(0-inf): AUC0-inf; for half-life: plasma
Protocol: The BALB/c mice, rats, and beagle dogs were used in the PK study and fasted overnight before dosing. Animal doses were administered in two ways. One is oral administration, configured to form a 6.25 mg/kg WX-081, with 0.5% carboxymethylcellulose (CMC), the other is the WX-081 with an intravenous injection of 1.0 mg/kg (formulated in 40% hydroxypropyl-β-cyclodextrin and 50 mM citrate buffer at pH 3). Plasma samples were collected from three animals at each time point. Plasma concentrations were determined by liquid chromatography-tandem mass spectrometry (LC-MS/MS). The bioanalytical method by LC-MS/MS for pharmacokinetic (PK) studies in animal and toxicokinetic (TK) in tox studies have been validated. The total area under the concentration-time curve (AUC0-inf), the elimination half-time (t1/2), the peak concentration (Cmax), and the time to reach peak concentration (Tmax) of samples were determined directly from the experimental data using WinNonlin V6.2.1.

[11] = Preliminary in vivo toxicity study in mice
Protocol: Before the in vivo activity test, a preliminary in vivo toxicity study was conducted. All mice tolerated WX-081 at the administered doses. No adverse events were found.

M. tuberculosis H37Rv [12] = format: in vivo, BALB/c mice; settings: acute model
M. tuberculosis H37Rv [13] = format: in vivo, BALB/c mice
[14] = 14-day repeated oral dose toxicity and toxicokinetic head-to-head study in beagle dogs; format: in vivo, beagle dog
[15] = target: T1, human ether-á-go-go-related (hERG) ion channel (Homo sapiens, UniProt Q12809); assay: hERG manual patch-clamp assay in hERG-CHO cell; format: cell-based; settings: parent compound
T1 construct: expressed in transfected cells; host or cells: hERG-CHO cell (CHO cells expressing hERG)
Protocol: A human ether-á-go-go-related (hERG) ion channel in vitro assay was performed in Shanghai Institute of Materia Medica, Shanghai, for the evaluation of cardiac liability testing. The assay was a manual patch-clamp method using electrophysiology in an hERG-CHO cell.

[16] = test system: M. tuberculosis susceptible strain 14242; assay: MBC determination (CFU-based); settings: 7 days incubation, 3 log10 CFU decrease
M. tuberculosis H37Rv [17] = assay: MBC determination (CFU-based); settings: 7 days incubation, 3 log10 CFU decrease
[18] = BALB/c, mouse, in vivo, iv, 1 mg/kg
[19] = BALB/c, mouse, in vivo, po, 6.25 mg/kg
[20] = beagle dogs, 200 mg/kg oral, 14 days

T1 sequence (Q12809 whole entry): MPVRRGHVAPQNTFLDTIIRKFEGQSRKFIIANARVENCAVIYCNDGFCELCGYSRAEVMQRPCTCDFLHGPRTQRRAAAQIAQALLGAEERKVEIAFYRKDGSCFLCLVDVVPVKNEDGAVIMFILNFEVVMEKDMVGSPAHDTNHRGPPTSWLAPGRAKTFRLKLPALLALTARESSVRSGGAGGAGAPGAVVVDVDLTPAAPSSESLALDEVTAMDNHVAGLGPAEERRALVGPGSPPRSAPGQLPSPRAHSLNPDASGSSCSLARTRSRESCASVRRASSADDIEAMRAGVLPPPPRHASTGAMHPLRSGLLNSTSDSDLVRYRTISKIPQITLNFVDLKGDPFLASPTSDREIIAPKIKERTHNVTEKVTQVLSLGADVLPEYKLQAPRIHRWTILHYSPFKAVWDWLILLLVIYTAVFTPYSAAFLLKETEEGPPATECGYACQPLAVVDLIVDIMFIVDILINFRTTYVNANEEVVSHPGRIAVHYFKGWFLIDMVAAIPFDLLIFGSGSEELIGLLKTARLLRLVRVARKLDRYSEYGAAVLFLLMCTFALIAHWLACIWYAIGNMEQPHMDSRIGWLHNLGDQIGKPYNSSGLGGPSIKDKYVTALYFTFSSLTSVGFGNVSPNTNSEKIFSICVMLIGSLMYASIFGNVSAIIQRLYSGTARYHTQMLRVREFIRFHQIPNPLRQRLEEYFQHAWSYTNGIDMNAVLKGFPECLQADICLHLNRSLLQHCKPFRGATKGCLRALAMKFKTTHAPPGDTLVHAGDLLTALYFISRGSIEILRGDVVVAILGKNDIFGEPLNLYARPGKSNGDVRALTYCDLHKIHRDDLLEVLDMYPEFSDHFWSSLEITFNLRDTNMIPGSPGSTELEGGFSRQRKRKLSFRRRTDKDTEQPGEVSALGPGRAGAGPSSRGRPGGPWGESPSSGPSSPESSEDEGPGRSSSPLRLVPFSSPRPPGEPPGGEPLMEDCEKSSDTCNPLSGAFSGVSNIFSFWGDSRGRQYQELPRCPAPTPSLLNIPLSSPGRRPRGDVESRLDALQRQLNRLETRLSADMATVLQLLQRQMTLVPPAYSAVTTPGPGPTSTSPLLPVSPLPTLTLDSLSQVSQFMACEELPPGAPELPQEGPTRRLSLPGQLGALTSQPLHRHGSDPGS

COc1ncc(-c2ccc(Cl)cc2)cc1[C@@H](c1ccccc1)[C@@](O)(CCN(C)C)c1cccc2ccccc12 [WX-081, sudapyridine] gave an MIC [1] of 0.117 µg/mL (≈ 0.218 µM), an MIC [2] of 0.219 µg/mL (≈ 0.408 µM) and an MIC [3] of 0.124 µg/mL (≈ 0.231 µM). The MIC [4] was 0.152 µg/mL (≈ 0.283 µM), the MIC [5] was 0.12 µg/mL (≈ 0.223 µM) and the MIC (M. tuberculosis H37Rv [6]) was 0.07 µg/mL (≈ 0.13 µM). The “concentration showing bactericidal effects in time-kill test” value [7] was at least 4 × MIC, the AUC(0-inf) [8, 18] was 4800 ng·h/mL and the AUC(0-t) [8, 18] was 3990 ng·h/mL. The Vd [8, 18] was 10.4 L/kg, the clearance [8, 18] was 3.59 mL/min/kg and the AUC(0-inf) [8, 19] was 11900 ng·h/mL. The AUC(0-t) [8, 19] was 10200 ng·h/mL, the Cmax [8, 19] was 503 ng/mL and the Tmax [8, 19] was 7.33 h. It also gave a bioavailability [8, 19] of 40.7%, a half-life ([8]; BALB/c, mouse, Iv. 1.0 mg/kg) of 2780 min and a half-life ([8]; BALB/c, mouse, Po. 6.25 mg/kg) of 2630 min. The “At 96 h lung/plasma: lung” value ([8]; Iv. 1.0 mg/kg) was 241, the “At 96 h lung/plasma: plasma” value ([8]; Iv. 1.0 mg/kg) was 12.4 and the “At 96 h lung/plasma: lung” value ([8]; Po. 6.25 mg/kg) was 857. For the same compound, the “At 96 h lung/plasma: plasma” value ([8]; Po. 6.25 mg/kg) was 25.3, the “At 96 h lung/plasma: lung” value ([9]; Iv. 1.0 mg/kg) was 235 and the “At 96 h lung/plasma: plasma” value ([9]; Iv. 1.0 mg/kg) was 3.61. For the same compound, the “At 96 h lung/plasma: lung” value ([9]; Po. 5.0 mg/kg) was 337, the “At 96 h lung/plasma: plasma” value ([9]; Po. 5.0 mg/kg) was 4.74 and the half-life ([9]; Iv. 1.0 mg/kg) was 1540 min. It also gave a half-life ([9]; Po. 5.0 mg/kg) of 1790 min, an AUC(0-inf) ([9]; rat, in vivo, iv, 1 mg/kg) of 2350 ng·h/mL and an AUC(0-t) ([9]; rat, in vivo, iv, 1 mg/kg) of 2220 ng·h/mL. The Vd ([9]; rat, in vivo, iv, 1 mg/kg) was 9.2 L/kg, the clearance ([9]; rat, in vivo, iv, 1 mg/kg) was 8.25 mL/min/kg and the AUC(0-inf) ([9]; rat, in vivo, po, 5 mg/kg) was 4310 ng·h/mL. It also gave an AUC(0-t) ([9]; rat, in vivo, po, 5 mg/kg) of 4080 ng·h/mL, a Cmax ([9]; rat, in vivo, po, 5 mg/kg) of 328 ng/mL and a Tmax ([9]; rat, in vivo, po, 5 mg/kg) of 1 h. It also gave a bioavailability ([9]; rat, in vivo, po, 5 mg/kg) of 36.7%, an AUC(0-t) ([10]; in vivo, iv, 0.5 mg/kg) of 3610 ng·h/mL and a Vd ([10]; in vivo, iv, 0.5 mg/kg) of 6.04 L/kg. The clearance ([10]; in vivo, iv, 0.5 mg/kg) was 2.04 mL/min/kg, the AUC(0-inf) ([10]; in vivo, iv, 0.5 mg/kg) was 4250 ng·h/mL and the AUC(0-t) ([10]; in vivo, po, 2 mg/kg) was 8500 ng·h/mL. The bioavailability ([10]; in vivo, po, 2 mg/kg) was 58.9%, the AUC(0-inf) ([10]; in vivo, po, 2 mg/kg) was 9490 ng·h/mL and the Cmax ([10]; in vivo, po, 2 mg/kg) was 390 ng/mL. The Tmax ([10]; in vivo, po, 2 mg/kg, Tmax) was 4.67 h, the AUC(0-t) ([10]; in vivo, po, 6 mg/kg) was 20200 ng·h/mL and the bioavailability ([10]; in vivo, po, 6 mg/kg) was 46.6%. For the same compound, the AUC(0-inf) ([10]; in vivo, po, 6 mg/kg) was 22800 ng·h/mL, the Cmax ([10]; in vivo, po, 6 mg/kg) was 1080 ng/mL and the Tmax ([10]; in vivo, po, 6 mg/kg, Tmax) was 5.33 h. For the same compound, the AUC(0-t) ([10]; in vivo, po, 20 mg/kg) was 50400 ng·h/mL, the bioavailability ([10]; in vivo, po, 20 mg/kg) was 34.9% and the Tmax ([10]; in vivo, po, 20 mg/kg, Tmax) was 7.67 h. It also gave a Tmax ([10]; in vivo, po, 20 mg/kg, time to peak concentration (Tmax)) of 4.6 to 7.7 h, a half-life ([10]; iv, 0.5 mg/kg, Dog, Iv. 0.5 mg/kg, read-out: t1/2 (converted)) of 2.34 days and a half-life ([10]; po, 2 mg/kg, Dog, Po. 2.0 mg/kg, read-out: t1/2 (converted)) of 2.13 days. For the same compound, the half-life ([10]; po, 6 mg/kg, Dog, Po. 6.0 mg/kg, read-out: t1/2 (converted)) was 2.32 days, the half-life ([10]; po, 20 mg/kg, Dog, Po. 20.0 mg/kg, read-out: t1/2 (converted)) was 2.4 days and the half-life ([10]; po, 20 mg/kg, beagle dogs, oral, range over doses of 2, 6, or 20 mg/kg, read-out: plasma half-life (t1/2)) was 2.12 to 2.42 days. The LD50 ([11]; mouse, in vivo, read-out: LD50 (dose that caused at least 50% of mice to die)) was over 3000 mg/kg, the “tolerability at the administered doses” value ([11]; no adverse events were found) was “tolerated” and the “reduction in CFU compared with BDQ at 10 mg/kg” value (M. tuberculosis H37Rv [12]; 10 mg/kg, P < 0.05) was “larger reduction in CFU than BDQ”. For the same compound, the “activity compared with BDQ at the equivalent dose” value (M. tuberculosis H37Rv [12]; 20 mg/kg) was “no difference from that of BDQ”, the “culturable organisms in mouse lungs” value (M. tuberculosis H37Rv [12]; daily 20 mg/kg monotherapy, 20 days) was “all culturable organisms’ clearance” and the “reduction of CFU in the lungs compared with 15 mg/kg RFP” value (M. tuberculosis H37Rv [13]; chronic model, 5 mg/kg, 8-week treatment) was “superior”. For the same compound, the “activity compared with BDQ” value (M. tuberculosis H37Rv [13]; chronic model, 5, 10, and 20 mg/kg orally, 8 weeks) was “slightly lower than BDQ, there was no significant difference in activity”, the “lung CFU after 8 weeks of treatment” value (M. tuberculosis H37Rv [13]; chronic model, any dose (5, 10, 20 mg/kg)) was “declined” and the mortality and moribundity ([14]; 200 mg/kg oral once daily, 14 days, male and female dogs) was “did not result in mortality and moribundity”. For the same compound, the “ECG: HR” value [14, 20] was “Slowing of the heart rate”, the “ECG: QT interval” value [14, 20] was “Physiologically appropriate lengthening of the QT interval” and the “ECG: RR/PR interval” value [14, 20] was “Lengthening of the RR interval”. The “qualitative ECG changes associated with oral administration” value [14, 20] was “no qualitative ECG changes”, the “effects on blood pressure, heart rate, or qualitative ECG parameters” value ([14]; dog, in vivo) was “no adverse effects” and the cTnI ([14]; dog, in vivo, po, 200 mg/kg) was “no significant changes”. It also gave an IC50 [15] of over 30 µM, an MBCs [16] of 0.313 µg/mL and an MBCs (M. tuberculosis H37Rv [17]) of 2.500 µg/mL.
